According to ChEMBL document CHEMBL4828767, “Identification of Clinical Candidate M2698, a Dual p70S6K and Akt Inhibitor, for Treatment of PAM Pathway-Altered Cancers” (J Med Chem, 2021):
Each block holds one compound with its values, some of them ahead of it.

How the values were obtained:
in vitro [1] = conditions: rat, plasma
Description: Protein binding in rat plasma assessed as unbound fraction

in vitro [2] = conditions: human, plasma
Description: Protein binding in human plasma assessed as unbound fraction

cells = assay type: cell-based; conditions: Homo sapiens, MDA-MB-468
[3] = rat, microsomes
Description: Intrinsic clearance in rat microsomes

MDA-MB-468 = assay: cells; assay type: functional, cell-based; conditions: Homo sapiens, MDA-MB-468, 96 h
Description: Antiproliferative activity against human MDA-MB-468 cells incubated for 96 hrs by luminescence method

hERG (KCNH2) = hERG (KCNH2) (Homo sapiens, UniProt Q12809); assay: in vitro
Sequence of hERG (KCNH2) (Q12809 whole entry): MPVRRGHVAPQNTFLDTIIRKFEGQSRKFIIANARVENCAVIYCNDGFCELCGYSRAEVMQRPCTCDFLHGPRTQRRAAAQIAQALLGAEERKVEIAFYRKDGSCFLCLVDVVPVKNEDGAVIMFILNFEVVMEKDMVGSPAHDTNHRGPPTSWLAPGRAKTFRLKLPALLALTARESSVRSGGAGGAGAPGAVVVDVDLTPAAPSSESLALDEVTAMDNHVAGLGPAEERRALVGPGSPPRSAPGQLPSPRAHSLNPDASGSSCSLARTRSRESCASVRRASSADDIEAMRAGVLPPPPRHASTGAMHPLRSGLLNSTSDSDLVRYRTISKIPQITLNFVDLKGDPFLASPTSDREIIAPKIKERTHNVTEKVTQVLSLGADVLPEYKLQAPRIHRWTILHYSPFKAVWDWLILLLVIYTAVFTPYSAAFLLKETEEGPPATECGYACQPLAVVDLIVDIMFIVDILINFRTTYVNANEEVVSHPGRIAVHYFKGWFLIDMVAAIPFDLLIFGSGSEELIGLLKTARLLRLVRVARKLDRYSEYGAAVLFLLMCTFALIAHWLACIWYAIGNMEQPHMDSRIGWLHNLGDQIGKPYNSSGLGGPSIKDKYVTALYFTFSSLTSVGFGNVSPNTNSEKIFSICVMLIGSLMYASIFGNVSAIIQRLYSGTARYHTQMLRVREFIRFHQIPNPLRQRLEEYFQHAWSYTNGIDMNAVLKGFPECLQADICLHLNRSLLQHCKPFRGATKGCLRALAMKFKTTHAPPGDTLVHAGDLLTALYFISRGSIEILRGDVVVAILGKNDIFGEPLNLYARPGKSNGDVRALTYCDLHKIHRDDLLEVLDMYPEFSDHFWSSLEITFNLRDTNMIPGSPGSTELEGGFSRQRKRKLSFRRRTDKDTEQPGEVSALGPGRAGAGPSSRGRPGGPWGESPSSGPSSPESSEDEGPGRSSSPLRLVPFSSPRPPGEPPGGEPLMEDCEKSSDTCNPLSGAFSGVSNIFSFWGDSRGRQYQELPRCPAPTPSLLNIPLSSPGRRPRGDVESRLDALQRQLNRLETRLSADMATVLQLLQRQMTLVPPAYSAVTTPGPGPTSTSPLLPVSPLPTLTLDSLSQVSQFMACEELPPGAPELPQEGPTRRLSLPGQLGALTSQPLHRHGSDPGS
Description: Inhibition of human ERG at 10 uM relative to control

[4] = molecular target: Aurora kinase B/Inner centromere protein (Homo sapiens, UniProt Q96GD4); assay: biochemical; assay type: cell-based, Sf21
Sequence of Aurora kinase B/Inner centromere protein (Q96GD4 whole entry): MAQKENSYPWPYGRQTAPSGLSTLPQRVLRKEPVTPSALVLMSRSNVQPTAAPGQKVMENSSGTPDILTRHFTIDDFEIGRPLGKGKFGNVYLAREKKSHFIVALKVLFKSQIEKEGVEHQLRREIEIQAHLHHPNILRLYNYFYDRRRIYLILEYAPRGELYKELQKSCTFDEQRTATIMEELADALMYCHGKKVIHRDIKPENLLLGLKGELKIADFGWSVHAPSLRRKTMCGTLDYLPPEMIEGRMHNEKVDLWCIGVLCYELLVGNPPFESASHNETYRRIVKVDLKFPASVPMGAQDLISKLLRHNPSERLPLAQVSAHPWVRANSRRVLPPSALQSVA
Sequence of Aurora kinase B/Inner centromere protein (Q9NQS7 whole entry, further chain): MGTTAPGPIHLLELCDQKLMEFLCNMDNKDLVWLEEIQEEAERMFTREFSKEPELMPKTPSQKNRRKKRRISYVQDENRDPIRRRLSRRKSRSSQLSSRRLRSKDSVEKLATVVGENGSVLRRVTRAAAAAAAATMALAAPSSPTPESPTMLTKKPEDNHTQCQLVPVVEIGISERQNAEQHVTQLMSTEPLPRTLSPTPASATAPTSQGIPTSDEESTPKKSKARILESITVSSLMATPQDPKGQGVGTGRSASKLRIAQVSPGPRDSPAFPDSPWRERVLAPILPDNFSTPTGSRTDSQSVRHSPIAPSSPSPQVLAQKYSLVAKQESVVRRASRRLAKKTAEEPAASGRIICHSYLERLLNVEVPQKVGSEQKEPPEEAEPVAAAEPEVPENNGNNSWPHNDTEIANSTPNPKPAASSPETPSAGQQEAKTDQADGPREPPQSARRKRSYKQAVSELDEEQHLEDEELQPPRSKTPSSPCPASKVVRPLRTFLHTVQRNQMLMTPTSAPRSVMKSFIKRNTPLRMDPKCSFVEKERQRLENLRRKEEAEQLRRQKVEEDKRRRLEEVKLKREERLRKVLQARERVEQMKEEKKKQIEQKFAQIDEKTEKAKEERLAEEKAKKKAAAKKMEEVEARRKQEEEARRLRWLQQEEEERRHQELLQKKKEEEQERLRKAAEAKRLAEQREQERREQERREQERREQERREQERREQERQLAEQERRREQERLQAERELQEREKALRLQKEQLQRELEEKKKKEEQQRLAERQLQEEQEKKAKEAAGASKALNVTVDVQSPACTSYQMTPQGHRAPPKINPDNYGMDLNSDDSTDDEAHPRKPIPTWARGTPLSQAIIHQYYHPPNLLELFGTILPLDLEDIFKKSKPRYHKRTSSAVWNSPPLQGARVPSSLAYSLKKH

in vitro [5] = conditions: human, Caco-2
[6] = human, microsomes
Description: Intrinsic clearance in human microsomes

in vivo [7] = conditions: mouse
[8] = molecular target: RAC-alpha serine/threonine-protein kinase (Homo sapiens, UniProt P31749)
Sequence of RAC-alpha serine/threonine-protein kinase (P31749 whole entry): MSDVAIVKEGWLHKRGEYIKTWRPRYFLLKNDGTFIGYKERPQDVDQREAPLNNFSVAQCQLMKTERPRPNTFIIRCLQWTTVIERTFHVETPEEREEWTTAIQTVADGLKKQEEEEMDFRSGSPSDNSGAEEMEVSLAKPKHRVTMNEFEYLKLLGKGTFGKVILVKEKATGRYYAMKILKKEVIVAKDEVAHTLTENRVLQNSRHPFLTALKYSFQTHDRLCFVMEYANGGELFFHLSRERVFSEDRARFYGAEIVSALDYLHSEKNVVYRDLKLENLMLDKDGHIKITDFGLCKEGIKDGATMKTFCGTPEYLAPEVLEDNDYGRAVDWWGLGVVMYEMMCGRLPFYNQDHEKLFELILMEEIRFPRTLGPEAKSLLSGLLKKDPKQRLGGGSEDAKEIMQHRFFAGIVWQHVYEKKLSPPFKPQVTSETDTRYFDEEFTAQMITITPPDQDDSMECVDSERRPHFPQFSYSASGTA

in vivo [9] = conditions: mouse; remark: listed apart in the source
in vivo [10] = conditions: mouse, po
Description: Oral bioavailability in mouse

in vitro [11] = conditions: mouse, plasma
Description: Protein binding in mouse plasma assessed as unbound fraction

[12] = buffer, pH 7.4
Description: Thermodynamic solubility of compound at pH 7.4

[13] = mouse, microsomes
Description: Intrinsic clearance in mouse microsomes

Cytochrome P450 2C9 = Cytochrome P450 2C9 (Homo sapiens, UniProt P11712)
Sequence of Cytochrome P450 2C9 (P11712 whole entry): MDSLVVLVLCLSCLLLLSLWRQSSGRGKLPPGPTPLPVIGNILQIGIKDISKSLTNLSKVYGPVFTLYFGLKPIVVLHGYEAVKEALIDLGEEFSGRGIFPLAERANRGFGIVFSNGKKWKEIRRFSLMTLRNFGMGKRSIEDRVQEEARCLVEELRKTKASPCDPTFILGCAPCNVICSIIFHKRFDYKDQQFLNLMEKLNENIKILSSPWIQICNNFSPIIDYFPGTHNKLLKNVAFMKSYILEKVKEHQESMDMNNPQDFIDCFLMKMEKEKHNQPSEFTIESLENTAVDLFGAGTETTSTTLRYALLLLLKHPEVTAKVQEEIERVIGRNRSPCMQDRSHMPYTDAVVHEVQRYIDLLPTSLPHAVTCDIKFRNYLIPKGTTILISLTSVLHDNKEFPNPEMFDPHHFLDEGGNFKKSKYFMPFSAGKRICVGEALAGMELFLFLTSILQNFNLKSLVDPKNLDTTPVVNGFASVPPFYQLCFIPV
Description: Inhibition of CYP2C9 (unknown origin)

[14] = molecular target: Ribosomal protein S6 kinase beta-1 (Homo sapiens, UniProt P23443, T412E); assay type: cell-based, Sf21
Sequence of Ribosomal protein S6 kinase beta-1 (P23443 whole entry T412E): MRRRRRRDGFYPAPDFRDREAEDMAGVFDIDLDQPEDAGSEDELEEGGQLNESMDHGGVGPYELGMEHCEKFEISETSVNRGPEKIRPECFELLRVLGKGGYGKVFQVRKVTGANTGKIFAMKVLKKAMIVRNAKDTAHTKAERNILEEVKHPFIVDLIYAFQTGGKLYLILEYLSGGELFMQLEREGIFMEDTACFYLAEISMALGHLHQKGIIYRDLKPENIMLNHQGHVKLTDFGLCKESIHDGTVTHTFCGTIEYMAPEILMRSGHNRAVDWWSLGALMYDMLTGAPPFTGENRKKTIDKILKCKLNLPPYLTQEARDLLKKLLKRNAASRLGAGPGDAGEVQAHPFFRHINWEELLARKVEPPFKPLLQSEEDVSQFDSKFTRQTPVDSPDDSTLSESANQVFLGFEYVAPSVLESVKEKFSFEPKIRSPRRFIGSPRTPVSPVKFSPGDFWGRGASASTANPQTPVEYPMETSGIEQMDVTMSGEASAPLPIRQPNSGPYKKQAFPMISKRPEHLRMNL

in vivo [15] = conditions: dog, po
Description: Oral bioavailability in dog

in vivo [16] = conditions: cynomolgus monkey
Description: Volume of distribution at steady state in cynomolgus monkey

in vivo [17] = conditions: dog
Description: Volume of distribution at steady state in dog

in vivo [18] = conditions: dog; remark: listed apart in the source
in vivo [19] = conditions: rat, po
Description: Oral bioavailability in rat

physchem = conditions: octanol/water
Description: Lipophilicity, logP of compound

in vitro [20] = conditions: human, Caco-2; remark: listed apart in the source
in vivo [21] = conditions: dog; remark: listed apart in the source
in vivo [22] = conditions: rat
in vivo [23] = conditions: cynomolgus monkey, po
Description: Oral bioavailability in cynomolgus monkey

in vivo [24] = conditions: rat; remark: listed apart in the source
in vivo [25] = conditions: cynomolgus monkey; remark: listed apart in the source
Description: Half life in cynomolgus monkey

in vivo [26] = conditions: rat; remark: listed apart in the source
Description: Volume of distribution at steady state in rat

in vivo [27] = conditions: mouse; remark: listed apart in the source
Description: Volume of distribution at steady state in mouse

in vivo [28] = conditions: cynomolgus monkey; remark: listed apart in the source
Description: Clearance in cynomolgus monkey

fraction unbound (in vitro [1]): 0.23
fraction unbound (in vitro [2]): 0.15
IC50 (cells): 45 nM
CL [3]: 29 mL/min
IC50 (MDA-MB-468): 197 nM
IC50 [4]: 4 nM
Papp A→B (in vitro [5]): 16 ×10⁻⁶ cm/s
CL [6]: 21 mL/min
clearance (in vivo [7]): 29 mL/min/kg
IC50 [8]: 4 nM
half-life (in vivo [9]): 2.1 h
bioavailability (in vivo [10]): 33%
fraction unbound (in vitro [11]): 0.22
Therm_solubility [12]: 64 mg/mL
CL [13]: 11 mL/min
IC50 (Cytochrome P450 2C9): 3600 nM
Structure (SMILES): CNC[C@@H](Nc1ncnc2c(C(N)=O)cccc12)c1cccc(F)c1
inhibition at 10 µM (hERG (KCNH2)): 26%

IC50 [14]: 8 nM
IC50 (cells): 103 nM
Structure (SMILES): NC(=O)c1cccc2c(N[C@H](CN3CCC3)c3ccc(F)cc3)ncnc12

IC50 [14]: 2.9 nM
IC50 (cells): 43 nM
IC50 [4]: 233 nM
IC50 [8]: 6 nM
Structure (SMILES): NC(=O)c1cccc2c(N[C@H](CN3CCC3)c3ccc(F)c(C(F)(F)F)c3)ncnc12

IC50 [14]: > 10000 nM
IC50 [8]: > 10000 nM
Structure (SMILES): NC(=O)c1cccc2c(NCc3ccc4c(c3)OCO4)nccc12

IC50 (cells): 56 nM
IC50 [8]: 6 nM
Structure (SMILES): NC(=O)c1cccc2c(N[C@H](CN3CCC3)c3cccc(C(F)(F)F)c3)ncnc12

IC50 (cells): 702 nM
Structure (SMILES): CNC[C@H](Nc1ncnc2c(C(N)=O)cccc12)c1cccc(F)c1

IC50 (cells): 9.17 nM
Structure (SMILES): NC(=O)c1cccc2c(N[C@H](CN3CCCC3)c3ccccc3)ncnc12

IC50 [14]: 2 nM
IC50 (cells): 72 nM
IC50 [4]: 6 nM
IC50 [8]: 44 nM
Structure (SMILES): CNC[C@@H](Nc1nc(C)nc2c(C(N)=O)cccc12)c1cccc(F)c1

IC50 [8]: > 10000 nM
Structure (SMILES): NC(=O)c1cccc2c(NCc3ccc4c(c3)OCO4)ccnc12

IC50 [14]: 2 nM
IC50 (cells): 183 nM
IC50 [4]: 51 nM
IC50 [8]: 212 nM
Structure (SMILES): CCc1nc(N[C@H](CNC)c2cccc(F)c2)c2cccc(C(N)=O)c2n1

IC50 [14]: 1 nM
IC50 (cells): 28 nM
Structure (SMILES): NC(=O)c1cccc2c(N[C@H](CN3CCC3)c3ccc(C(F)(F)F)cc3)ncnc12

IC50 (cells): 25 nM
IC50 [4]: 9 nM
IC50 [8]: 15 nM
Structure (SMILES): CNCC(Nc1ncnc2c(C(N)=O)cccc12)c1cccc(F)c1 (racemic)

IC50 [14]: 30 nM
IC50 [4]: > 1000 nM
IC50 [8]: 400 nM
Structure (SMILES): CNC[C@@H](Nc1nc(C(F)(F)F)nc2c(C(N)=O)cccc12)c1cccc(F)c1

IC50 [14]: 2.4 nM
IC50 (cells): 76 nM
Structure (SMILES): NC(=O)c1cccc2c(N[C@H](CN3CCC3)c3cccc(F)c3)ncnc12

IC50 [14]: 1.3 nM
IC50 (cells): 25 nM
IC50 [8]: 14 nM
Structure (SMILES): NC(=O)c1cccc2c(N[C@H](CN3CCC3)c3cccc(Cl)c3)ncnc12

IC50 [14]: > 10000 nM
Structure (SMILES): CNC(=O)c1cccc2c(NCc3ccc4c(c3)OCO4)ncnc12

IC50 [14]: 160 nM
Structure (SMILES): CNCCC(Nc1ncnc2c(C(N)=O)cccc12)c1ccccc1 (stereo unspecified)

IC50 [14]: 1.1 nM
fraction unbound (in vitro [1]): 0.05
bioavailability (in vivo [15]): 36%
fraction unbound (in vitro [2]): 0.05
IC50 (cells): 11 nM
CL [3]: 37 mL/min
Vd (in vivo [16]): 14.3 L/kg
Vd (in vivo [17]): 7.43 L/kg
half-life (in vivo [18]): 4.1 h
bioavailability (in vivo [19]): 15%
IC50 [4]: 170 nM
Papp A→B (in vitro [5]): 12.1 ×10⁻⁶ cm/s
CL [6]: 31 mL/min
clearance (in vivo [7]): 25 mL/min/kg
logP (physchem): 2.4
efflux ratio (in vitro [20]): 1.5
IC50 [8]: 4 nM
half-life (in vivo [9]): 4.3 h
bioavailability (in vivo [10]): 43%
clearance (in vivo [21]): 20 mL/min/kg
half-life (in vivo [22]): 3.9 h
fraction unbound (in vitro [11]): 0.03
bioavailability (in vivo [23]): 44%
clearance (in vivo [24]): 51.7 mL/min/kg
half-life (in vivo [25]): 10.1 h
Vd (in vivo [26]): 17.6 L/kg
CL [13]: 30 mL/min
Vd (in vivo [27]): 9.88 L/kg
clearance (in vivo [28]): 15 mL/min/kg
Structure (SMILES): NC(=O)c1cccc2c(N[C@H](CN3CCC3)c3ccc(Cl)c(C(F)(F)F)c3)ncnc12 [RUPITASERTIB]

IC50 [14]: 2 nM
IC50 (cells): 43 nM
IC50 [4]: 75 nM
IC50 [8]: 10 nM
Structure (SMILES): NC(=O)c1cccc2c(N[C@H](CN3CCC3)c3ccc(Cl)c(F)c3)ncnc12

IC50 [14]: 65 nM
IC50 (cells): > 1000 nM
IC50 [4]: 45 nM
IC50 [8]: 563 nM
Structure (SMILES): NC(=O)c1cccc2c(N[C@H](CN3CCCC3)c3cccc(F)c3)ncnc12

IC50 [14]: > 10000 nM
Structure (SMILES): c1ccc(CNc2ncnc3ccccc23)cc1

IC50 [8]: > 10000 nM
Structure (SMILES): NC(=O)c1cccc2c(NCc3ccc4c(c3)OCO4)ncnc12

IC50 [14]: 973 nM
Structure (SMILES): CN(Cc1ccccc1)c1ncnc2c(C(N)=O)cccc12

IC50 [14]: 6.2 nM
IC50 (cells): 1.6 nM
Structure (SMILES): NC(=O)c1cccc2c(N[C@H](CN3CCC3)c3ccccc3)ncnc12

IC50 [14]: > 10000 nM
Structure (SMILES): CN(C)C(=O)c1cccc2c(NCc3ccc4c(c3)OCO4)ncnc12

IC50 [14]: > 10000 nM
Structure (SMILES): COC(=O)c1cccc2c(NCc3ccc4c(c3)OCO4)ncnc12

IC50 [14]: > 10000 nM
Structure (SMILES): O=C(O)c1cccc2c(NCc3ccc4c(c3)OCO4)ncnc12

IC50 [14]: 1 nM
IC50 (cells): 74 nM
IC50 [8]: 4 nM
Structure (SMILES): NC(=O)c1cccc2c(N[C@H](CN3CCC3)c3ccc(F)c(F)c3)ncnc12
